DBAASP
≈ marks a conversion by molar mass, not a printed value.

Legend:
Assay in all cases: ≥ marks a high value that may be exact or a test limit, other limits are often not marked, values filed in µg/mL are converted to µM
[1] = system: Klebsiella pneumoniae NCTC 13368
Micrococcus luteus A270 = system: Micrococcus luteus A270
[2] = system: Pseudomonas aeruginosa NCIB 10421
[3] = system: Candida tropicalis IOC 4560
[4] = system: Enterobacter cloacae beta-12
[5] = system: Bacillus megaterium ATCC 10778
Escherichia coli SBS 363 = system: Escherichia coli SBS 363
[6] = system: Escherichia coli NCTC 12923
[7] = system: Staphylococcus aureus ATCC 29213
[8] = system: Pseudomonas aeruginosa NCTC 13437
[9] = system: Acinetobacter baumannii ATCC 17978
[10] = system: Bacillus subtilis ATCC 6633
[11] = system: Staphylococcus aureus USA 300
[12] = system: Staphylococcus aureus ATCC 9144
[13] = system: Pseudomonas aeruginosa PAO1
Candida albicans MDM8 = system: Candida albicans MDM8
[14] = system: Serratia marcescens ATCC 4112
Leuconostoc lactis = system: Leuconostoc lactis
Escherichia coli K-12 = system: Escherichia coli K-12
Streptococcus uberis = system: Streptococcus uberis
[15] = system: Pseudomonas aeruginosa ATCC 27853
Salmonella sp. = system: Salmonella sp.
[16] = system: Escherichia coli ATCC 25922
[17] = system: Salmonella enterica subsp. enterica serovar Enteritidis
[18] = system: Staphylococcus aureus ATCC 43300
Escherichia coli = system: Escherichia coli
Yersinia enterocolitica = system: Yersinia enterocolitica
[19] = system: Lacticaseibacillus rhamnosus 1.0925
Escherichia coli UB1005 = system: Escherichia coli UB1005
[20] = system: Lacticaseibacillus rhamnosus 7469
[21] = system: Staphylococcus epidermidis ATCC 12228
[22] = system: Lacticaseibacillus rhamnosus 1.0911
[23] = system: Lacticaseibacillus rhamnosus 1.0386
[24] = system: Lactiplantibacillus plantarum 8014
[25] = system: Lacticaseibacillus rhamnosus 1.0385
[26] = system: Escherichia coli ATCC 11229
[27] = system: Staphylococcus aureus ATCC 33591
[28] = system: Staphylococcus aureus ATCC 25923
[29] = system: Klebsiella pneumoniae ATCC BAA-1705
Escherichia coli W3110 = system: Escherichia coli W3110
[30] = system: Pseudomonas aeruginosa ATCC 9027
[31] = system: Candida albicans FRR 5580
Staphylococcus aureus = system: Staphylococcus aureus

SMILES: CC[C@H](C)[C@H](NC(=O)[C@H](CCCCN)NC(=O)[C@H](CCC(=O)O)NC(=O)[C@H](Cc1c[nH]c2ccccc12)NC(=O)[C@H](Cc1ccccc1)NC(=O)[C@H](CCCCN)NC(=O)CNC(=O)[C@H](CC(C)C)NC(=O)[C@H](C)N)C(=O)N[C@@H](CCCCN)C(=O)N[C@@H](CO)C(=O)N[C@@H](CC(C)C)C(=O)N[C@@H](Cc1ccccc1)C(N)=O [ALGKFWEKIKSLF]
- MIC [1]: 10.2 µM (≈ 16 µg/mL)
- MIC (Micrococcus luteus A270): 0.78 µM (≈ 1.22 µg/mL)
- MIC [2]: 12.5 µM (≈ 19.6 µg/mL)
- MIC [3]: 0.78 µM (≈ 1.22 µg/mL)
- MIC [4]: 6.25 µM (≈ 9.79 µg/mL)
- MIC [5]: 0.78 µM (≈ 1.22 µg/mL)
- MIC (Escherichia coli SBS 363): 1.56 µM (≈ 2.44 µg/mL)
- MIC [6]: 5.11 µM (≈ 8 µg/mL)
- MIC [7]: 3.13 µM (≈ 4.9 µg/mL)
- MIC [8]: ≥ 40.8 µM
- MIC [9]: 2.55 µM (≈ 4 µg/mL)
- MIC [10]: 0.78 µM (≈ 1.22 µg/mL)
- MIC [11]: 10.2 µM (≈ 16 µg/mL)
- MIC [12]: 2.55 µM (≈ 4 µg/mL)
- MIC [13]: > 81.7 µM
- MIC (Candida albicans MDM8): 3.13 µM (≈ 4.9 µg/mL)
- MIC [14]: 0.36 µM (≈ 0.564 µg/mL)

SMILES: CC(C)C[C@H](NC(=O)CN)C(=O)N[C@@H](C)C(=O)N[C@@H](CC(=O)O)C(=O)N[C@@H](Cc1ccccc1)C(=O)N[C@@H](CC(C)C)C(=O)N[C@@H](CC(N)=O)C(=O)N[C@@H](CCCCN)C(=O)N[C@@H](C)C(=O)N[C@H](C(=O)NCC(=O)N[C@@H](CCCCN)C(=O)N[C@H](C(=O)N[C@H](C(=O)N[C@@H](CC(=O)O)C(=O)N[C@@H](Cc1ccccc1)C(=O)N[C@H](C(=O)N[C@@H](CCCCN)C(=O)N[C@@H](CO)C(N)=O)C(C)C)C(C)C)C(C)C)C(C)C [GLADFLNKAVGKVVDFVKS]
- MIC (Leuconostoc lactis): 25 µM (≈ 50.2 µg/mL)
- MIC [11]: ≥ 100 µM
- MIC (Escherichia coli K-12): ≥ 100 µM
- MIC (Streptococcus uberis): ≥ 50 µM

SMILES: NCCCC[C@H](NC(=O)[C@H](CCCCN)NC(=O)[C@H](Cc1ccccc1)NC(=O)[C@H](CCCCN)NC(=O)[C@H](CCCN=C(N)N)NC(=O)[C@H](CCCN=C(N)N)NC(=O)[C@H](Cc1ccccc1)NC(=O)[C@H](CCCCN)NC(=O)[C@@H](N)CCCN=C(N)N)C(N)=O [RKFRRKFKK]
- MIC [15]: > 50 µM
- MIC (Salmonella sp.): ≥ 50 µM
- MIC [16]: > 50 µM
- MIC [17]: ≥ 50 µM
- MIC [7]: > 50 µM
- MIC [18]: > 50 µM
- MIC (Escherichia coli): > 50 µM
- MIC (Yersinia enterocolitica): ≥ 50 µM

SMILES: NC(=O)[C@H](CCCN=C(N)N)NC(=O)[C@H](CCCN=C(N)N)NC(=O)[C@H](Cc1c[nH]c2ccccc12)NC(=O)[C@H](CS)NC(=O)[C@H](Cc1c[nH]c2ccccc12)NC(=O)[C@H](Cc1c[nH]c2ccccc12)NC(=O)[C@H](Cc1c[nH]c2ccccc12)NC(=O)[C@H](CS)NC(=O)[C@H](Cc1c[nH]c2ccccc12)NC(=O)[C@H](CCCN=C(N)N)NC(=O)[C@@H](N)CCCN=C(N)N [RRWCWWWCWRR]
- MIC [19]: ≥ 64 µM
- MIC (Escherichia coli UB1005): 16 µM (≈ 28.5 µg/mL)
- MIC [15]: 8 µM (≈ 14.2 µg/mL)
- MIC [20]: ≥ 64 µM
- MIC [21]: 8 µM (≈ 14.2 µg/mL)
- MIC [16]: > 64 µM
- MIC [22]: ≥ 64 µM
- MIC [7]: 8 µM (≈ 14.2 µg/mL)
- MIC [23]: 16 µM (≈ 28.5 µg/mL)
- MIC [18]: 4 µM (≈ 7.12 µg/mL)
- MIC [24]: 8 µM (≈ 14.2 µg/mL)
- MIC [25]: ≥ 64 µM

SMILES: C[C@@H](O)[C@H](NC(=O)[C@H](Cc1c[nH]c2ccccc12)NC(=O)[C@H](Cc1c[nH]c2ccccc12)NC(=O)[C@H](Cc1c[nH]c2ccccc12)NC(=O)[C@@H](NC(=O)[C@H](Cc1c[nH]c2ccccc12)NC(=O)[C@H](CCCN=C(N)N)NC(=O)[C@@H](N)CCCN=C(N)N)[C@@H](C)O)C(=O)N[C@@H](Cc1c[nH]c2ccccc12)C(=O)N[C@@H](CCCN=C(N)N)C(=O)N[C@@H](CCCN=C(N)N)C(N)=O [RRWTWWWTWRR]
- MIC [19]: ≥ 64 µM
- MIC (Escherichia coli UB1005): 2 µM (≈ 3.55 µg/mL)
- MIC [15]: 4 µM (≈ 7.1 µg/mL)
- MIC [20]: ≥ 64 µM
- MIC [21]: 2 µM (≈ 3.55 µg/mL)
- MIC [22]: ≥ 64 µM
- MIC [23]: ≥ 64 µM
- MIC [18]: 4 µM (≈ 7.1 µg/mL)
- MIC [24]: ≥ 64 µM
- MIC [25]: ≥ 64 µM

SMILES: CC[C@H](C)[C@H](NC(=O)[C@H](CCCN=C(N)N)NC(=O)[C@H](CCSC)NC(=O)[C@H](C)NC(=O)[C@H](CCCN=C(N)N)NC(=O)CNC(=O)[C@H](C)NC(=O)[C@@H](NC(=O)[C@@H](N)CO)C(C)C)C(=O)NCC(=O)N[C@@H](CC(C)C)C(=O)N[C@@H](CCCN=C(N)N)C(=O)N[C@@H](Cc1ccccc1)C(=O)N[C@H](C(=O)N[C@@H](CC(C)C)C(=O)N[C@@H](CCSC)C(=O)O)C(C)C [SVAGRAMRIGLRFVLM]
- MIC [26]: ≥ 36 µM
- MIC [7]: 36 µM (≈ 64 µg/mL)
- MIC [27]: ≥ 36 µM
- MIC [28]: 36 µM (≈ 64 µg/mL)

SMILES: CC[C@H](C)[C@H](NC(=O)[C@H](CCCCN)NC(=O)[C@H](CCCCN)NC(=O)[C@H](Cc1ccc(O)cc1)NC(=O)[C@H](CCCCN)NC(=O)[C@H](CC(C)C)NC(=O)[C@H](CC(C)C)NC(=O)[C@H](CCCCN)NC(=O)[C@H](CC(C)C)NC(=O)CNC(=O)[C@H](Cc1c[nH]c2ccccc12)NC(=O)[C@H](CS)NC(=O)[C@H](C)NC(=O)[C@H](Cc1c[nH]c2ccccc12)NC(=O)[C@H](CCCN=C(N)N)NC(=O)[C@@H](N)Cc1c[nH]c2ccccc12)C(=O)N[C@@H](Cc1ccc(O)cc1)C(=O)O [WRWACWGLKLLKYKKIY]
- MIC [29]: ≥ 64 µM
- MIC (Escherichia coli W3110): 1 µM (≈ 2.26 µg/mL)

SMILES: NCCCC[C@H](NC(=O)[C@H](Cc1c[nH]c2ccccc12)NC(=O)[C@H](Cc1c[nH]c2ccccc12)NC(=O)[C@H](CCCCN)NC(=O)[C@H](Cc1c[nH]c2ccccc12)NC(=O)[C@H](Cc1c[nH]c2ccccc12)NC(=O)[C@H](CCCN=C(N)N)NC(=O)[C@@H](N)Cc1c[nH]c2ccccc12)C(N)=O [WRWWKWWK]
- MIC [30]: 23.5 µM (≈ 32 µg/mL)
- MIC [16]: 2.94 µM (≈ 4 µg/mL)
- MIC [31]: ≥ 47 µM
- MIC [28]: 5.88 µM (≈ 7.99 µg/mL)

SMILES: NCCCC[C@H](NC(=O)[C@H](Cc1c[nH]c2ccccc12)NC(=O)[C@H](Cc1c[nH]c2ccccc12)NC(=O)[C@H](CCCN=C(N)N)NC(=O)[C@@H](N)Cc1c[nH]c2ccccc12)C(=O)N[C@@H](Cc1c[nH]c2ccccc12)C(=O)N[C@@H](Cc1c[nH]c2ccccc12)C(N)=O [WRWWKWW]
- MIC [30]: 25.9 µM (≈ 32 µg/mL)
- MIC [16]: 3.24 µM (≈ 4 µg/mL)
- MIC [31]: ≥ 51.9 µM
- MIC [28]: 6.49 µM (≈ 7.99 µg/mL)
- MIC (Staphylococcus aureus): 6.49 µM (≈ 7.99 µg/mL)
